Data published in patent US20220112149A1, “DRUG DESIGN METHOD ASSOCIATED WITH NATURAL PRODUCTS, PENTACYCLIC TRITERPENOID COMPOUND, PREPARATION METHOD AND APPLICATIONS THEREOF” (Huazhong Agricultural University, priority 2020, published 2022).

Columns and labels:
[1] = tested on: ICAM-1 expression in HMEC-1 cells; assay: LPS-induced ICAM-1 expression in HMEC-1 cells, flow cytometry; format: cell-based, human
Experimental: (3) Screening candidate molecules with the strongest ICAM-1 inhibitory activity by simulating the physiological model of inflammation that human microvascular endothelial cells (HMEC-1) expressing cell adhesion molecules (ICAM-1) mediate lymphocytes to penetrate blood vessels to infiltrate the damaged tissues. The specific steps are as follows:
(§1) 1) Culture of HMEC-1 cells: HMEC-1 cells are cultured in MCDB131 medium (U.S. Sigma) that contain 10% fetal bovine serum (FBS, Zhejiang Tianhang Biotechnology Co., Ltd.), double antibody (100 U/mL penicillin and 100 μg/mL streptomycin), 1 μg/mL hydrocortisone (Sangon Biotech (Shanghai) Co., Ltd.) and 10 ng/mL human recombinant growth factor (hEGF, Sangon Biotech (Shanghai) Co., Ltd.) at 37° C., 5% CO2, and 100% RH.
2) HMEC-1 cells are inoculated into a 24-well plate, and cultured in a cell incubator at 37° C., 5% CO2, and 100% RH. When the cells grow to 80% abundance, different concentrations of drugs are added for 3 h (1 μM Celastrol as a positive control drug). At the end of treatment, 1 μg/mL LPS is added to activate the NF-κB signaling pathway for 12 hours. After activation, the supernatant medium is discarded, and washed three times with PBS, and 100 μL of 0.25% pancreatin (containing 0.5 mM EDTA) is added to digest in a 37° C. incubator for 3 min. When most of cells are shed, 150 μL of MCDB131 complete medium is added to terminate the digestion, shaken for 3 min, then cells are transferred to a V-shaped 96-well plate (Corning), centrifuged at 4° C., 3000 rpm for 3 min to precipitate cells. Then the supernatant medium is discarded, 100 μL of pH=7.4 buffer A (PBS+0.5% BSA+1 mM MgCl2) is added to each well, to wash once, centrifuged at 4° C., 3000 rpm for 3 min, and the buffer A is aspirated. To each well, 100 μL of PBS solution containing 5% bovine serum albumin is added, and shaken and blocked at 120 rpm for 30 min at room temperature; after blocking, centrifuged at 4° C. and 2000 rpm for 3 min, and the supernatant is discarded, 20 μl of buffer A containing 5 μg/mL of primary antibody anti-ICAM-1 antibody LB-2, shaken and incubated at room temperature at 120 rpm for 1 h, using the buffer A without adding anti-ICAM-1 antibody LB-2 as the negative control. By detecting anti-ICAM-1 fluorescence value by flow cytometry, the expression of ICAM-1 protein in HMEC-1 cells is detected indirectly. Three duplicate wells are established for each concentration. PBS is set as a blank control, 1 uM of Celastrol is set as a positive control, to analyze the inhibitory effect of different concentrations of drugs on the expression level of ICAM-1.
as §1, with “U/ml” for “U/mL”, “μg/ml” for “μg/mL”, “Biotech)” for “Biotech (Shanghai) Co., Ltd.)”, “ng/ml” for “ng/mL”
HMEC-1 cells are inoculated into a 24-well plate, and cultured in a cell incubator at 37° C., 5% CO2, and 100% RH. When the cells grow to 80% abundance, different concentrations of drugs are added for 3 h (1 μM Celastrol as a positive control drug). At the end of treatment, 1 μg/mL LPS is added to activate the NF-κB signaling pathway for 12 hours. After activation, the supernatant medium is discarded, and washed three times with PBS, and 100 μL of 0.25% pancreatin (containing 0.5 mM EDTA) is added to digest in a 37° C. incubator for 3 min. When most of cells are shed, 150 μL of MCDB131 complete medium is added to terminate the digestion, shaken for 3 min, then cells are transferred to a V-shaped 96-well plate (Corning), centrifuged at 4° C., 3000 rpm for 3 min to precipitate cells. Then the supernatant medium is discarded, 100 μL of pH=7.4 buffer A (PBS+0.5% BSA+1 mM MgCl2) is added to each well, to wash once, centrifuged at 4° C., 3000 rpm for 3 min, and the buffer A is aspirated. […]

[2] = tested on: Leptin receptor-deficient db/db mice; assay: GA-02 in db/db mice, intraperitoneal; format: in vivo; conditions: 20 mg/kg i.p., 14 days
Experimental: (§2) Eight-week-old male ob/ob and db/db mice are adapted to the environment under normal conditions for one week. The animals are grouped according to the body weight and blood glucose, 2 cages in each group, 5 animals in each cage. Mice are acclimatized with the vehicle for 3 days in the experimental group (25 μL DMSO/day) and are injected with drugs by intraperitoneal injection (20 mg/kg; 25 μL per injection). Mice in the control group are injected with the same volume of vehicle. The administration starts from 18:00 every day for 14 consecutive days. The body weight and food intake of mice are recorded every day.

[3] = tested on: mRNA of IL-1β, TNF-α, IL-6 and MCP-1; assay: qRT-PCR of inflammatory factor mRNA; format: cell-based; conditions: activated by LPS
Experimental: FIGS. 10A-10C show the inhibition verification effect chart of GA-02 in Example 5, where FIG. 10A: GA-02 inhibited LPS-induced ICAM-1 expression activity. The inflammatory pathway of HMEC-1 cell was activated by 1 μg/mL LPS, to determine the effect of Celastrol and GA-02 on the expression of ICAM-1 induced by LPS. FIG. 10B: The effect of GA-02 on NF-κB signaling. The NF-κB luciferase reporter plasmid was used to transfect HEK293 cells, and the effects of Celastrol and GA-02 on the NF-κB activity induced by TNF-α were determined; FIG. 10C: qRT-PCR was used to detect mRNA relative expressions of IL-1β, TNF-α, IL-6 and MCP-1.
ICAM-1 is a downstream effector molecule regulated by NF-κB signaling pathway, and NF-κB plays an important role in regulating the expression of ICAM-1 gene. Celastrol can inhibit the activation of the LPS-induced IKK/NF-κB signaling pathway. In order to validate that GA-02 functions through the IKK/NF-κB signaling pathway, we constructed an NF-κB luciferase reporter gene system to validate the inhibitory activity of Celastrol and GA-02 on the luciferase reporter gene. […] In addition, both Celastrol and GA-02 could down-regulate the mRNA transcription levels of inflammatory factors IL-1β, TNF-α, IL-6 and MCP-1 activated by LPS.

[4] = tested on: Leptin-deficient ob/ob mice; assay: GA-02 in ob/ob mice, intraperitoneal; format: in vivo; conditions: 20 mg/kg i.p.
Experimental: as §2

obese mice of about 45 g = assay: GA-02 intragastric administration in obese mice; format: in vivo; conditions: 40 mg/kg intragastric, two weeks
Experimental: The lean mice of about 25 g, mildly obese mice of weighing about 30 g, and obese mice of about 45 g are given blank vehicle and high-dose GA-02 (40 mg/kg) by intragastric administration, respectively.

SMILES: CC1(C(=O)O)CCC2(C)CCC3(C)C(=CC(=O)C4C5(C)C=C(O)C(=O)C(C)(C)C5CCC43C)C2C1 (stereo not drawn) [GA-02, 3,11-dicarbonyl-1,12-diene-2-hydroxy-oleanane-30 carboxylic acid]
- anti-inflammatory activity compared with reference compounds [1]: effectively improved compared with 18β-glycyrrhetinic acid
- anti-inflammatory activity, times lower than that of Celastrol [1]: 10 times
- ICAM-1 inhibitory activity compared with Celastrol ([1]; 10 μM): equivalent to 1 μM Celastrol
- ICAM-1 inhibitory activity, concentration dependence ([1]; different concentrations): concentration-dependent ICAM-1 inhibitory activity
- body weight increase [2]: 15%
- food intakes compared with the vehicle control group [2]: do not change significantly
- mRNA transcription levels of inflammatory factors IL-1β, TNF-α, IL-6 and MCP-1 [3]: down-regulate
- food intake compared with the blank vehicle group ([4]; 14 days): reduced, but it is not significant
- overall decrease in body weight ([4]; 14 days): not significant
- body weight increase ([4]; in the first five days, later dropped to the initial body weight): 10%
- average daily food intake reduced by (obese mice of about 45 g): 50%
- body weight reduced by (obese mice of about 45 g): 21%
